# Earlier results in patent US20190076366A1, “PHARMACEUTICAL COMPOSITION OF ENTECAVIR AND PROCESS OF MANUFACTURING” (Pharmascience, Inc., priority 2012, published 2019).
# Experiments:
# [1] = 25°±0.5° C.
compound,measurement,setting,value
"C=C1C(n2cnc3c(=O)[nH]c(N)nc32)C[C@H](O)[C@H]1CO (stereo partly drawn) [Entecavir, 2-amino-l,9-dihydro-9-[(1S,3R,4S)-4-hydroxy-3-(hydroxymethyl)-2-methylenecyclopentyl]-6H-purin-6-one, monohydrate]",water solubility,in water,2400 µg/mL
same,solubility in purified water,purified water,2400 µg/mL
same,pH of the saturated solution in water,[1],7.9
